Assay results reported in patent publication US5780253A, “Screening method for detection of herbicides” (Sandoz Ltd., priority 1996, dated 1998).
“Also recorded” adds a separate entry of the source. Where two headings read alike, the source gives them in different places.

Columns and labels:
Arabidopsis [1] = test: Arabidopsis reversal (reversion) assay: growth with probe compound in the presence of antidote compounds; assay type: in vivo; details: for Inhibition of AMP biosynthesis (conversion of IMP to AMP), in words: concluded from Arabidopsis antidote reversal; for Growth (in words): without antidote; for Effect of the antidote alone on growth of the plant (in words): control columns 1 through 3, no probe compound
Source text: Test conditions suitable for growth are those conditions wherein the control plant material used in the screen, described herein, will grow normally. These conditions are easily determined by one skilled in the art. Reversal conditions are those conditions in which inhibition which occurs at the lethal concentration of a probe compound is reversed as determined by exposure of the plant material to combinations of the probe compound and to one or more antidote compounds. […] An antidote compound is a compound that causes reversal of inhibition of a probe compound. As an example, with respect to inhibitors of ADSS, antidotes would include AMP, ADP, adenosine and adenine.
The solutions are filter sterilized prior to addition. FIG. 4 represents a typical set up in a reversion assay for discovering inhibitors of AMP biosynthesis.
The left side (columns 1-3) of the 24-well microtiter plate is designed for controls, and the right side (columns 4-6) are designated for one probe compound. […] Rows B, C and D are supplemented with three doses of an antidote for the control and probe compound. […] The three doses are 50, 100 and 150 μl respectively of the stock solutions.
Forty ml of Arabidopsis growth media as described in Example 1 is sterilized and allowed to cool to about 45° C. A probe compound (at 1.5×lethal concentration) is added to columns 4 through 6 (right half of the plate). Media is distributed at 1.0 ml per well to all wells. Sterile seeds are added to each well as described above. As in Example 1, the plate is incubated and growth is scored.

Arabidopsis [2] = test: Arabidopsis bioassay, determination of the lethal concentration (LC 90) of the probe compound
IMP to GMP conversion = details: known; cited from earlier work
[3] = antidote Adenosine + Guanosine 0.5-5.0 mM
[4] = antidote Cytidine + Uridine 0.5-5.0 mM
[5] = antidote Hypoxanthine 0.5-5.0 mM
[6] = read-out: lethal concentration (LC 90), Arabidopsis seeds, 28° C., 7 days, approximately, 90% or greater growth inhibition

Compound	Growth, % of Control (Arabidopsis [1]; antidote ADP 0.5-5.0 mM)	Growth, % of Control (Arabidopsis [1]; antidote AMP 0.5-5.0 mM)	Growth, % of Control (Arabidopsis [1]; antidote ATP 0.5-5.0 mM)	Growth, % of Control (Arabidopsis [1]; antidote Adenine 0.5-5.0 mM)	Growth, % of Control (Arabidopsis [1]; antidote Adenosine 0.5-5.0 mM)	Growth, % of Control (Arabidopsis [1]; [3])	Growth, % of Control (Arabidopsis [1]; [4])	Growth, % of Control (Arabidopsis [1]; antidote Guanine 0.5-5.0 mM)	Growth, % of Control (Arabidopsis [1]; antidote Guanosine 0.5-5.0 mM)	Growth, % of Control (Arabidopsis [1]; [5])	Growth, % of Control (Arabidopsis [1]; antidote IMP 0.5-5.0 mM)	Inhibition of AMP biosynthesis (conversion of IMP to AMP), in words (Arabidopsis [1])	Growth (in words) (Arabidopsis [1])	further results
O=C1NC(=O)C2(N1)O[C@H](CO)[C@@H](O)[C@H]2O (single isomer, unassigned) [hydantocidin, reference compound]	100 % of Control	100 % of Control	40 % of Control	60 % of Control	80-100 % of Control	80 % of Control	0 % of Control	0 % of Control	0 % of Control	0 % of Control	5 % of Control	blocking AMP biosynthesis; also recorded: inhibition of AMP biosynthesis	Growth is not observed	Growth / reversal of growth inhibition (in words) (Arabidopsis [1]; antidote IMP): did not reverse growth inhibition; Growth / reversal of growth inhibition (in words) (Arabidopsis [1]; antidotes adenosine and AMP, rows B and C, wells 4 through 6): Complete growth; IC90 (Arabidopsis [2]; [6]): ~2 µM
Nc1ncnc2c1ncn2[C@@H]1O[C@H](COP(=O)(O)O)[C@@H](O)[C@H]1O [AMP, adenosine monophosphate, reference compound]														Effect of the antidote alone on growth of the plant (in words) (Arabidopsis [1]): no effect on the growth of the plant
COc1c(C)c2c(c(O)c1C/C=C(\C)CCC(=O)O)C(=O)OC2 [MPA, Mycophenolic Acid]													Growth is not observed	Inhibition of IMP to GMP conversion, in words (IMP to GMP conversion): known inhibitor of IMP to GMP conversion; IC90 (Arabidopsis [2]; Arabidopsis thaliana, 168 h, read-out: lethal concentration): 12.5 µg/mL
CC(=O)N1C(=O)NC2(OC(COP(=O)(O)O)C(O)C2O)C1=O (stereo not shown) [N-acetylphosphohydantocidin, 5'-Phospho-N-acetyl-hydantocidin]	100 % of Control	100 % of Control	40 % of Control	65 % of Control	80-100 % of Control	80 % of Control	0 % of Control	0 % of Control	0 % of Control	0 % of Control	5 % of Control		Growth is not observed	Growth, % of Control (Arabidopsis [1]; No antidote, 0 mM, probe compound at 1.5×lethal concentration): 0 % of Control; IC90 (Arabidopsis [2]; [6]): ~8 µM
NC(=O)c1ncn([C@@H]2O[C@H](CO)[C@@H](O)[C@H]2O)n1 [TCR, 1,2,4-triazole-3-carboxamide-1-ribose, reference compound]													Growth is not observed	
Nc1ncnc2c1ncn2[C@@H]1O[C@H](CO)[C@@H](O)[C@H]1O [adenosine, reference compound]														Effect of the antidote alone on growth of the plant (in words) (Arabidopsis [1]): no effect on the growth of the plant
O=CN(O)CC(=O)O [hadacidin, reference compound]												blocking AMP biosynthesis	Growth is not observed	IC90 (Arabidopsis [2]; Arabidopsis thaliana, 168 h, read-out: lethal concentration (LC 90)): ~50 µM
N-acetyl hydantocidin	100 % of Control	100 % of Control	40 % of Control	60 % of Control	80-100 % of Control	80 % of Control	0 % of Control	0 % of Control	0 % of Control	0 % of Control	5 % of Control	blocking AMP biosynthesis	Growth is not observed	
